Patent US20060178382A1, “Chinazoline derivatives as aurora kinase inhibitors” (AstraZeneca AB, priority 2003, published 2006)

How the values were obtained:
Aurora-B kinase = target: T1, Aurora-B kinase (Homo sapiens, UniProt Q96GD4); experiment: In vitro Aurora-B kinase inhibition test; format: biochemical; settings: recombinant Aurora-B, [γ33P]ATP, peptide substrate, 60 minutes room temperature; read-out: concentration giving 50% inhibition of enzyme activity
T1 construct: 6-histidine tag; made in house; host or cells: Spodoptera frugiperda Sf21 insect cells (baculovirus)
Text: (b) In Vitro Aurora-B Kinase Inhibition Test
This assay determines the ability of a test compound to inhibit serine-threonine kinase activity. DNA encoding Aurora-B may be obtained by total gene synthesis or by cloning. This DNA may then be expressed in a suitable expression system to obtain polypeptide with serine-threonine kinase activity. In the case of Aurora-B, the coding sequence was isolated from cDNA by polymerase chain reaction (PCR) and cloned into the pFastBac system in a manner similar to that described above for Aurora-A (i.e. to direct expression of a 6-histidine tagged Aurora-B protein).
For the large scale expression of Aurora-B kinase activity, Sf21 insect cells were grown at 28° C. in TC100 medium supplemented with 10% foetal calf serum (Viralex) and 0.2% F68 Pluronic (Sigma) on a Wheaton roller rig at 3 r.p.m. When the cell density reached 1.2×10^6 cells ml^−1 they were infected with plaque-pure Aurora-B recombinant virus at a multiplicity of infection of 1 and harvested 48 hours later. All subsequent purification steps were performed at 4° C. […]

Aurora-A kinase = target: T2, Aurora-A kinase (Homo sapiens, UniProt O14965); experiment: In vitro Aurora-A kinase inhibition test; format: biochemical
T2 construct: 6 histidine tag with spacer region and rTEV protease cleavage site (pFastBac HTc) (N); made in house; host or cells: Spodoptera frugiperda Sf21 insect cells (baculovirus)
T2 sequence (O14965 1-403): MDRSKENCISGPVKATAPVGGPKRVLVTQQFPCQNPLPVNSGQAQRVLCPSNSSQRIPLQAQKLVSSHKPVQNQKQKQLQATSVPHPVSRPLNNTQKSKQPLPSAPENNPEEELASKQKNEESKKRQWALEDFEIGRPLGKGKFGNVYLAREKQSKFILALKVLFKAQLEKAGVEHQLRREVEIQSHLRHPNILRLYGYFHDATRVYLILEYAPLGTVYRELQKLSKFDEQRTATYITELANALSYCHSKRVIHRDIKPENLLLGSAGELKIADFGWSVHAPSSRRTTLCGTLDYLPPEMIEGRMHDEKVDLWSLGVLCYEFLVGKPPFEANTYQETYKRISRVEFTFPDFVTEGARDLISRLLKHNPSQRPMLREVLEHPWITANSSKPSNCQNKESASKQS

T1 sequence (Q96GD4 whole entry): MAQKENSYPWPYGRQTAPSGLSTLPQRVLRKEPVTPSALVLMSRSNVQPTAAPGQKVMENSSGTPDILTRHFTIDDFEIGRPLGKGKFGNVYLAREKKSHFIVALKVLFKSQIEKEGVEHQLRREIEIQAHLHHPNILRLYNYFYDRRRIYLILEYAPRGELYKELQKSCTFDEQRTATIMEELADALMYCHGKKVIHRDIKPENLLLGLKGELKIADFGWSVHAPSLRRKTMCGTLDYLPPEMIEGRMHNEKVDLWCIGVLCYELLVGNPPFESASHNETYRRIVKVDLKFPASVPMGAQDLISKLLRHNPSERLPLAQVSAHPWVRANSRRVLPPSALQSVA

SMILES	IC50 (Aurora-B kinase) [nM]	IC50 (Aurora-A kinase) [nM]
COc1cc2c(Nc3cn(CC(=O)Nc4cccc(F)c4)nn3)ncnc2cc1OCCCCl [Compound 1, 2-(4-{[7-(3-chloropropoxy)-6-methoxyguinazolin-4-yl]amino}-1H-1,2,3-triazol-1-yl)-N-(3-fluorophenyl)acetamide]	100	900
CCCN(CCO)CCCOc1cc2ncnc(Nc3cn(CC(=O)Nc4cccc(F)c4)nn3)c2cc1OC [Compound 4, N-(3-fluorophenyl)-2-{4-[(7-{3-[(2-hydroxyethyl)(propyl)amino]propoxy}-6-methoxyquinazolin-4-yl)amino]-1H-1,2,3-triazol-1-yl}acetamide]	100	500
